Test results: patent US20040044006A1, “Methods of use of quinolone compounds against pneumococcal and haemophilus bacteria” (priority 1999, published 2004)
Where two headings read alike, the source gives them in different places.

Columns and labels:
[1] = system: quinolone susceptible pneumococci (ciprofloxacin MICs ≦4.0 μg/ml); experiment: Agar dilution MICs of 207 quinolone susceptible pneumococcal strains; type: cell-based, Streptococcus pneumoniae; details: Streptococcus pneumoniae; for MIC90: read-out: MIC90
Summary of the method: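 Agar dilution MICs by prior methods on Mueller-Hinton agar with 5% sheep blood; S. pneumoniae ATCC 49619 among QC strains each run. Isolates were recent U.S. strains plus some from South Africa, Europe and Korea.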

[2] = system: pneumococci with ciprofloxacin MICs ≧8 μg/ml; experiment: Quinolone agar dilution MICs of 28 ciprofloxacin resistant pneumococcal strains, correlated with QRDR mutations; type: cell-based, Streptococcus pneumoniae
Method: Additionally these strains were tested for mutations in parC, gyrA, parE, and gyrB (Pan, et al. Antimicrob. Agents Chemother. 40:2321-2326, 1996) and for efflux mechanism (Brenwald, et ail., Antimicrob. Agents Chemother. 42:2032-2035, 1998).
Gemifloxacin susceptibility powder was obtained from SmithKline Beecham Laboratories, Harlow, UK. Agar dilution methodology was performed on 28 strains as described previously (M. R. Jacobs, Clin. Infect. Dis. 15: 119-127, […] and M. R. Jacobs, Rev. Med. Microbiol. 6:77-93, 1995), using Mueller-Hinton altar (BBL Microbiology Systems, Cockeysville, Md.) supplemented with 5% sheep blood. Standard quality control strains, including Streptococcus pneumoniae ATCC 49619, were included in each run of agar dilution MICs.

[3] = system: pneumococcal strains; experiment: Microbroth dilution MICs of strains tested by time-kill and PAE; type: cell-based; details: Streptococcus pneumoniae
Summary of the method: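 Broth MICs per NCCLS in cation-adjusted Mueller-Hinton broth with 5% lysed defibrinated horse blood. Used for 12 time-kill and 6 PAE strains. S. pneumoniae ATCC 49619 run as quality control.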

[4] = system: pneumococci (5 quinolone susceptible and 1 resistant strains); experiment: Post-antibiotic effect (PAE) testing; type: cell-based, Streptococcus pneumoniae
Method: The post-antibiotic effect (PAE) (Craig, et al., V. Lorian (ed.) Antibiotics in Laboratory Medicine, Williams and Wilkins, Baltimore, pages 296-399, 1996) was determined by the viable plate count method, using Mueller-Hinton broth (MHB) supplemented with 5% lysed horse blood when testing pneumococci. […] Additionally, the one quinolone resistant strain was exposed at quinolone concentrations 5×MIC. Tubes containing 5 ml broth with antibiotic were inoculated with approximately 5×10^6 cfu/ml. Growth controls with inoculum but no antibiotic were included with each experiment. Tubes were placed in a shaking water bath at 35° C. for 1 h. At the end of the exposure period, cultures were diluted 1:1000 to remove antibiotic.
Viability counts were determined before exposure and immediately after dilution (0 h), and then every 2 h until tube turbidity reached a #1 McFarland standard. Inocula were prepared by suspending growth from an overnight blood agar plate in broth. The broth was incubated at 35° C. for 2-4 h in a shaking water bath until turbidity matched a #1 McFarland standard, and checked for viability by plate counts (Spangler, et al., Antimicrob. Agents Chemother. 41:2173-9176, 1997; Spangler, et al., Antimicrob. Agents Chemother. 42:1253-1255, 1998).
The PAE was defined as PAE=T-C; T=time required for viability counts of an antibiotic-exposed culture to increase by 1 log10 above counts immediately after dilution; C=corresponding time for growth control. For each experiment, viability counts (log10 cfu/ml) were plotted against time, and results expressed as the mean of two separate assays±S D (Craig, et al., V. Lorian (ed), Antibiotics in Laboratory Medicine, Williams and Wilkins, Baltimore, pages 296-329, 1996).

[5] = agar dilution, Penicillin I strains
[6] = agar dilution, Penicillin R strains
[7] = agar dilution, Penicillin S strains
[8] = agar dilution, all 207 strains (64 penicillin susceptible, 68 intermediate, 75 resistant)

CO/N=C1\CN(c2nc3c(cc2F)c(=O)c(C(=O)O)cn3C2CC2)CC1CN (racemic) [Gemifloxacin, (R,S)-7-(3-aminomethyl-4-methoxyiminopyrrolidin-1-yl)-1-cyclopropyl-6-fluoro-4-oxo-1,4-dihydro-1,8-naphthyridine-3-carboxylic acid]
0.9 h: PAE ([4]; 5×MIC, quinolone resistant strain)
0.03 µg/mL: MIC50 [1, 5] | MIC50 [1, 6] | MIC50 [1, 7] | MIC90 [1, 7] | MIC50 [1, 8] | MIC ([3]; strain 5 (I) penicillin intermediate, read-out: Microdilution MIC) | MIC ([3]; strain 9 (R) penicillin resistant, read-out: Microdilution MIC) | MIC ([3]; strain 12 (R) penicillin resistant, read-out: Microdilution MIC)
0.008 to 0.25 µg/mL: MIC ([1]; agar dilution, Penicillin I strains, read-out: MIC range)
0.4 to 1.6 h: PAE ([4]; 10×MIC for 1 h, range over 5 quinolone susceptible strains)
0.008 to 0.125 µg/mL: MIC ([1]; read-out: MIC range, agar dilution, Penicillin S strains)
0.125 µg/mL: MIC ([2]; Streptococcus pneumoniae, strain 5, ParC R95-C, ParE D435-N, GyrA S81-F, GyrB None) | MIC ([2]; Streptococcus pneumoniae, strain 5, ParC R95-C, ParE D435-N, GyrA S83-F, GyrB None) | MIC ([2]; Streptococcus pneumoniae, strain 6, ParC S79-Y, ParE I460-V, GyrA E85-K, GyrB None) | MIC ([2]; Streptococcus pneumoniae, strain 6, ParC S79-Y, ParE I460-V, GyrA E87-K, GyrB None) | MIC ([2]; Streptococcus pneumoniae, strain 7, ParC None, ParE I460-V, GyrA None, GyrB None) | MIC ([2]; Streptococcus pneumoniae, strain 8, ParC S79-Y, ParE None, GyrA None, GyrB None) | MIC ([2]; Streptococcus pneumoniae, strain 9, ParC S79-Y, ParE None, GyrA None, GyrB None) | MIC ([2]; Streptococcus pneumoniae, strain 10, ParC S79-F, ParE I460-V, GyrA S81-C, GyrB None) | MIC ([2]; Streptococcus pneumoniae, strain 10, ParC S79-F, ParE I460-V, GyrA S83-C, GyrB None) | MIC ([2]; Streptococcus pneumoniae, strain 11, ParC S79-F, ParE I460-V, GyrA S81-F, GyrB None) | MIC ([2]; Streptococcus pneumoniae, strain 11, ParC S79-F, ParE I460-V, GyrA S83-F, GyrB None) | MIC ([2]; Streptococcus pneumoniae, strain 12, ParC S79-F, ParE I460-V, GyrA None, GyrB D435-N)
≤ 0.5 µg/mL: MIC ([2]; Streptococcus pneumoniae, read-out: MICs in strains with three or four QRDR mutations, 21 strains, bound holds in all 21 (ciprofloxacin, levofloxacin, sparfloxacin), 20 (grepafloxacin), 11 (trovafloxacin), 19 (gemifloxacin))
0.25 µg/mL: MIC50 ([2]; Streptococcus pneumoniae) | MIC ([3]; broth MIC, quinolone resistant PAE strain, read-out: MIC against the quinolone resistant strain tested for PAE) | MIC ([3]; strain 4 (S) penicillin susceptible, quinolone-resistant, read-out: Microdilution MIC)
0.016 µg/mL: MIC ([3]; strain 1 (S) penicillin susceptible, read-out: Microdilution MIC) | MIC ([3]; strain 2 (S) penicillin susceptible, read-out: Microdilution MIC) | MIC ([3]; strain 6 (I) penicillin intermediate, read-out: Microdilution MIC) | MIC ([3]; strain 7 (I) penicillin intermediate, read-out: Microdilution MIC) | MIC ([3]; strain 8 (I) penicillin intermediate, read-out: Microdilution MIC) | MIC ([3]; strain 10 (I), read-out: Microdilution MIC) | MIC ([3]; strain 11 (R) penicillin resistant, read-out: Microdilution MIC)
0.5 µg/mL: MIC90 ([2]; Streptococcus pneumoniae) | MIC ([3]; strain 3 (S) penicillin susceptible, quinolone-resistant, read-out: Microdilution MIC)
1 µg/mL: MIC ([2]; Streptococcus pneumoniae, strain 27, ParC S79-Y, ParE I460-V, GyrA S81-F, GyrB None) | MIC ([2]; Streptococcus pneumoniae, strain 27, ParC S79-Y, ParE I460-V, GyrA S83-F, GyrB None) | MIC ([2]; Streptococcus pneumoniae, strain 28, ParC D83-G N91-D, ParE None, GyrA S81-F S114-G, GyrB None) | MIC ([2]; Streptococcus pneumoniae, strain 28, ParC cell empty, ParE None, GyrA S83-F and S116-G, GyrB None)
0.004 to 0.125 µg/mL: MIC ([1]; read-out: MIC range, agar dilution, Penicillin R strains)
< 0.5 µg/mL: MIC ([2]; Streptococcus pneumoniae, read-out: MICs in strains with three or four QRDR mutations, 20 strains, bound holds in all 20 (ciprofloxacin, levofloxacin, sparfloxacin), 19 (grepafloxacin), 10 (trovafloxacin), 18 (gemifloxacin))
0.03 to 1.0 µg/mL: MIC Range ([2]; agar dilution, 28 strains with ciprofloxacin MICs ≧8.0 μg/ml)
0.06 µg/mL: MIC90 [1, 5] | MIC90 [1, 6] | MIC90 [1, 8] | MIC ([2]; Streptococcus pneumoniae, strain 2, ParC S79-Y, ParE I460-V, GyrA None, GyrB None) | MIC ([2]; Streptococcus pneumoniae, strain 3, ParC D83-N, ParE I460-V, GyrA S81-F, GyrB None) | MIC ([2]; Streptococcus pneumoniae, strain 3, ParC D83-N, ParE I460-V, GyrA S83-F, GyrB None) | MIC ([2]; Streptococcus pneumoniae, strain 4, ParC S79-F, ParE I460-V, GyrA S81-F, GyrB None) | MIC ([2]; Streptococcus pneumoniae, strain 4, ParC S79-F, ParE I460-V, GyrA S83-F, GyrB None)
